PMC11457037 (Journal of medicinal chemistry, 2023)
Read-outs that look alike come from different tables or passages of the source.

Columns and labels:
EV-D68 2A^pro [1] = molecular target: T1, EV-D68 2A^pro (Enterovirus D68, UniProt A0A097BW19); test: FRET-based enzymatic assay; assay type: biochemical
EV-D68 2A^pro [2] = molecular target: T1, EV-D68 2A^pro; test: Enzyme kinetic studies; assay type: biochemical; conditions: for Mode of inhibition of EV-D68 2A^pro: from fitting of kinetic curves
EV-D68 US/MO/14-18947 [3] = test: Plaque assay, EV-D68 US/MO/14-18947; assay type: cell-based, Enterovirus D68
five strains of EV-D68 = test: Broad-spectrum antiviral activity, five strains of EV-D68 together; assay type: cell-based, Enterovirus D68
[4] = In vivo snap P.K. in mice; conditions: male C57BL/6J mice, 50 mg/kg i.p., 10% DMSO and 90% corn oil
[5] = In vivo toxicity, escalating i.p. doses
EV-D68 = conditions: respiratory and neurological disease mouse models; cited from earlier work
EV-D68 US/MO/14-18947 [6] = test: CPE assay with EV-D68 US/MO/14-18947 in R.D. cells; assay type: cell-based, Enterovirus D68; conditions: for EC50: read-out: Antiviral EC50
[7] = system: multiple strains of EV-D68; conditions: read-out: EC50 values, multiple strains of EV-D68; viral cytopathic effect assay and plaque assay; cited from earlier work
R.D. cells = test: Cytotoxicity, neutral red uptake method in R.D. cells; assay type: cell-based, Human; conditions: read-out: Cytotoxicity CC50

With `CC(C)(C)[C@H](NC(=O)CC12CC3CC(CC(C3)C1)C2)C(=O)N1C[C@@H]2CCC[C@@H]2[C@H]1C(=O)N[C@H](C(=O)C(=O)NC1CC1)C1CCCCC1` [Jun11762, (1S,3aR,6aS)-2-((S)-2-(2-((3S,5S,7S)-adamantan-1-yl)acetamido)-3,3-dimethylbutanoyl)-N-((S)-1-cyclohexyl-3-(cyclopropylamino)-2,3-dioxopropyl)octahydrocyclopenta[c]pyrrole-1-carboxamide] the “enzymatic inhibition, comparison in words” value (EV-D68 2A^pro [1]) was “comparable enzymatic inhibition and antiviral activity as Jun8861”, the “Mode of inhibition of EV-D68 2A^pro” value (EV-D68 2A^pro [2]) was “reversible binding” and the “fold improvement compared to telaprevir, plaque assay EC50” value (EV-D68 US/MO/14-18947 [3]) was 3 to 4 fold. The EC50 (five strains of EV-D68; Enterovirus D, EVD68, read-out: EC50 values over all five strains) was 43 to 269 nM, the “fold improvement compared to telaprevir, five strains” value (five strains of EV-D68; five EV-D68 strains) was 3.1-4.6 fold and the “time plasma concentration was above 4-fold of EC50 value (0.13 μM)” value [4] was “at least 5 h”. For the same compound, the “mortality and body weight” value ([5]; BALB/c mice, i.p. 100 to 400 mg/kg, monitored up to day 16) was “no mortality or significant body weight loss was observed” and the tolerated dose ([5]; female, BALB/c, mouse, in vivo, 16 days) was “up to 400 mg/kg”.

In the case of `CCOC(=O)c1ccc(OCCC2CCN(c3ccc(C)nn3)CC2)cc1` [pirodavir], the “therapeutic efficacy in EV-D68 mouse models” value (from here on “therapeutic efficacy”) (EV-D68) is given as “none of these antivirals showed therapeutic efficacy”.

With `COC[C@H](NC(=O)[C@@H]1[C@H]2CCC[C@H]2CN1C(=O)[C@@H](NC(=O)CC12CC3CC(CC(C3)C1)C2)C(C)(C)C)C(=O)C(=O)NC1CC1` [Jun11672, (1S,3aR,6aS)-2-((S)-2-(2-((3S,5S,7S)-adamantan-1-yl)acetamido)-3,3-dimethylbutanoyl)-N-((S)-4-(cyclopropylamino)-1-methoxy-3,4-dioxobutan-2-yl)octahydrocyclopenta[c]pyrrole-1-carboxamide] the “antiviral activity, comparison in words” value (EV-D68 US/MO/14-18947 [6]; CPE assay EV-D68 US/MO/14-18947) was “not active as Jun8861”.

In the case of `Cc1cc(CCCOc2c(C)cc(-c3noc(C(F)(F)F)n3)cc2C)on1` [pleconaril], the “therapeutic efficacy” value (EV-D68) is listed as “none of these antivirals showed therapeutic efficacy”.

For `CCC[C@H](NC(=O)[C@@H]1[C@H]2CCC[C@H]2CN1C(=O)[C@@H](NC(=O)[C@@H](NC(=O)c1cnccn1)C1CCCCC1)C(C)(C)C)C(=O)C(=O)NC1CC1` [Telaprevir, telaprevir, reference compound], the kinact (EV-D68 2A^pro [2]) is listed as 0.00146 s⁻¹, the “Mode of inhibition of EV-D68 2A^pro” value (EV-D68 2A^pro [2]) is listed as “irreversible covalent inhibitor” and the EC50 [7] is listed as 400 to 1900 nM.

In the case of `CCC[C@H](NC(=O)[C@@H]1[C@H]2CCC[C@H]2CN1C(=O)[C@@H](NC(=O)CC1CCCCC1)C(C)(C)C)C(=O)C(=O)NC1CC1` [Jun8814, (1S,3aR,6aS)-2-((S)-2-(2-cyclohexylacetamido)-3,3-dimethylbutanoyl)-N-((S)-1-(cyclopropylamino)-1,2-dioxohexan-3-yl)octahydrocyclopenta[c]pyrrole-1-carboxamide], the EC50 (EV-D68 US/MO/14-18947 [6]; Enterovirus D, EVD68, RD) is reported as 160 to 750 nM.

In the case of `NC(=O)c1ncn([C@@H]2O[C@H](CO)[C@@H](O)[C@H]2O)n1` [ribavirin], the “therapeutic efficacy” value (EV-D68) is given as “none of these antivirals showed therapeutic efficacy”.

In the case of `CCC(C)[C@H](NC(=O)[C@@H]1[C@H]2CCC[C@H]2CN1C(=O)[C@@H](NC(=O)CC12CC3CC(CC(C3)C1)C2)C(C)(C)C)C(=O)C(=O)NC1CC1` (stereo partly drawn) [Jun11756, (1S,3aR,6aS)-2-((S)-2-(2-((3S,5S,7S)-adamantan-1-yl)acetamido)-3,3-dimethylbutanoyl)-N-((3S,4S)-1-(cyclopropylamino)-4-methyl-1,2-dioxohexan-3-yl)octahydrocyclopenta[c]pyrrole-1-carboxamide], the “enzymatic inhibition, comparison in words” value (EV-D68 2A^pro [1]) is reported as “comparable enzymatic inhibition and antiviral activity as Jun8861” and the “fold improvement compared to telaprevir, plaque assay EC50” value (EV-D68 US/MO/14-18947 [3]) is reported as 3 to 4 fold.

With “(1S,3aR,6aS)-N-((S)-1-(cyclopropylamino)-1,2-dioxohexan-3-yl)-2-((S)-3,3-dimethyl-2-(2-phenylacetamido)butanoyl)octahydrocyclopenta[c]pyrrole-1-carboxamide [Jun8861]” the IC50 (EV-D68 2A^pro [1]; read-out: Enzymatic inhibitory activity IC50, EV-D68 2A^pro) was 80 nM, the EC50 (EV-D68 US/MO/14-18947 [6]; CPE assay, EV-D68 US/MO/14-18947, R.D. cells) was 160 nM and the CC50 (R.D. cells) was 36200 nM. The “Mode of inhibition of EV-D68 2A^pro” value (EV-D68 2A^pro [2]) was “reversible binding”.

In the case of `CCOC(=O)/C=C/[C@H](C[C@@H]1CCNC1=O)NC(=O)[C@@H](CC(=O)[C@@H](NC(=O)c1cc(C)on1)C(C)C)Cc1ccc(F)cc1` [rupintrivir], the “therapeutic efficacy” value (EV-D68) is given as “none of these antivirals showed therapeutic efficacy”.

In the case of `CC(C)S(=O)(=O)n1c(N)nc2ccc(/C(=N/O)c3ccccc3)cc21` [enviroxime], the “therapeutic efficacy” value (EV-D68) is listed as “none of these antivirals showed therapeutic efficacy”.

`CCC[C@H](NC(=O)[C@@H]1[C@H]2CCC[C@H]2CN1C(=O)[C@@H](NC(=O)CC1CCCC1)C(C)(C)C)C(=O)C(=O)NC1CC1` [Jun971, (1S,3aR,6aS)-2-((S)-2-(2-cyclopentylacetamido)-3,3-dimethylbutanoyl)-N-((S)-1-(cyclopropylamino)-1,2-dioxohexan-3-yl)octahydrocyclopenta[c]pyrrole-1-carboxamide] showed an EC50 (EV-D68 US/MO/14-18947 [6]; Enterovirus D, EVD68, RD) of 160 to 750 nM.
